# Measured values from ChEMBL document CHEMBL5360558, “Molecular design, synthesis and anticancer activity of new thiopyrano[2,3-d]thiazoles based on 5-hydroxy-1,4-naphthoquinone (juglone)” (Eur J Med Chem, 2023).
# How the values were obtained:
# [1] = tested on: NCI-H322M; assay: Growth inhibition of human NCI-H322M cells incubated for 48 hrs by sulforhodamine B spectrophotometric assay; type: functional
# [2] = tested on: M14; assay: Growth inhibition against human M14 cells assessed as lethal concentration incubated for 48 hrs by sulforhodamine B spectrophotometric assay; type: functional; details: read-out: LC50 (the source's name)
# [3] = tested on: A549; assay: Growth inhibition against human A549 cells assessed as total growth inhibitory concentration incubated for 48 hrs by sulforhodamine B spectrophotometric assay; type: functional
# [4] = tested on: NCI-H460; assay: Growth inhibition of human NCI-H460 cells incubated for 48 hrs by sulforhodamine B spectrophotometric assay; type: functional
# [5] = Cytotoxicity against human HCT116-p53-null cells assessed as cell growth inhibition incubated for 72 hrs by MTT assay; type: functional, cell-based
# [6] = tested on: SF-295; assay: Growth inhibition of human SF-295 cells incubated for 48 hrs by sulforhodamine B spectrophotometric assay; type: functional
# [7] = GSH reactivity of compound at pH 7.4 phosphate buffer assessed as GSH-adduct formation at 1 mM incubated for 1 hr in presence of sodium borohydride by spectrophotometric analysis; type: physicochemical; details: pH 7.4, 1 h, 1000 µM
# [8] = tested on: MDA-MB-231; assay: Induction of apoptosis in human MDA-MB-231 cells assessed as increase in caspase-8 level at 5 uM incubated for 24 hrs by flow cytometry analysis; type: functional
# [9] = tested on: NCI-H322M; assay: Anticancer activity against human NCI-H322M cells assessed as cell growth at 10 uM incubated for 48 hrs by sulforhodamine B assay; type: functional; details: read-out: Activity
# [10] = tested on: SN12C; assay: Growth inhibition of human SN12C cells incubated for 48 hrs by sulforhodamine B spectrophotometric assay; type: functional
# [11] = Cytotoxicity against human Lymphocyte cells assessed as cell growth inhibition incubated for 72 hrs by MTT assay; type: toxicity, cell-based; details: lymphocytes
# [12] = Acute toxicity in C57BL/6 mouse assessed as survival rate at 20 mg/kg,ip administration observed after 22 days; type: organism-based; details: in vivo, time 22 day
# [13] = tested on: A549; assay: Growth inhibition of human A549 cells incubated for 48 hrs by sulforhodamine B spectrophotometric assay; type: functional
# [14] = tested on: SK-MEL-28; assay: Growth inhibition against human SK-MEL-28 cells assessed as lethal concentration incubated for 48 hrs by sulforhodamine B spectrophotometric assay; type: functional; details: read-out: LC50 (the source's name)
# [15] = tested on: HOP-92; assay: Growth inhibition of human HOP-92 cells incubated for 48 hrs by sulforhodamine B spectrophotometric assay; type: functional
# [16] = tested on: CCRF-CEM; assay: Induction of cell cycle arrest in human CCRF-CEM cells assessed as accumulation of cells at higher G2/M phase at 4.14 uM incubated for 24 hrs by propidium iodide staining based flow cytometry analysis (reference value: 10.09 +/- 0.14%); type: functional
# [17] = tested on: PC-3; assay: Growth inhibition of human PC-3 cells incubated for 48 hrs by sulforhodamine B spectrophotometric assay; type: functional
# [18] = tested on: HCT-15; assay: Growth inhibition of human HCT-15 cells incubated for 48 hrs by sulforhodamine B spectrophotometric assay; type: functional
# [19] = tested on: SR; assay: Growth inhibition against human SR cells assessed as total growth inhibitory concentration incubated for 48 hrs by sulforhodamine B spectrophotometric assay; type: functional
# [20] = tested on: CCRF-CEM; assay: Induction of cell cycle arrest in human CCRF-CEM cells assessed as accumulation of cells at G2/M phase at 20.7 uM incubated for 24 hrs by propidium iodide staining based flow cytometry analysis (reference value: 20.24 +/- 0.25%); type: functional
# [21] = tested on: NCI-H322M; assay: Growth inhibition against human NCI-H322M cells assessed as lethal concentration incubated for 48 hrs by sulforhodamine B spectrophotometric assay; type: functional; details: read-out: LC50 (the source's name)
# [22] = tested on: PC-3; assay: Growth inhibition against human PC-3 cells assessed as total growth inhibitory concentration incubated for 48 hrs by sulforhodamine B spectrophotometric assay; type: functional
# [23] = tested on: SK-MEL-2; assay: Growth inhibition against human SK-MEL-2 cells assessed as total growth inhibitory concentration incubated for 48 hrs by sulforhodamine B spectrophotometric assay; type: functional
# [24] = tested on: CCRF-CEM; assay: Induction of cell cycle arrest in human CCRF-CEM cells assessed as RNA synthesis at 4.14 uM incubated for 3 hrs by […] incorporation based flow cytometry analysis (reference value: 31.8 +/- 1.17%); type: functional
# [25] = Acute toxicity in C57BL/6 mouse assessed as change in white blood cells at 20 mg/kg,ip administration observed after 22 days; type: organism-based; details: in vivo, 528 h, time 22 day
# [26] = tested on: KB 3-1; assay: Cytotoxicity against human KB 3-1 cells assessed as cell growth inhibition incubated for 72 hrs by MTT assay; type: functional, cell-based; details: KB 3-1, 72 h
# [27] = tested on: MDA-MB-231; assay: Induction of apoptosis in human MDA-MB-231 cells at 5 uM incubated for 24 hrs by Annexin-V-FITC/propidium iodide staining based flow cytometry analysis (reference value: 8.9%); type: functional
# [28] = tested on: A498; assay: Growth inhibition of human A498 cells incubated for 48 hrs by sulforhodamine B spectrophotometric assay; type: functional
# [29] = tested on: NCI-H226; assay: Growth inhibition of human NCI-H226 cells incubated for 48 hrs by sulforhodamine B spectrophotometric assay; type: functional
# [30] = Antileukemic activity against human CLL cell assessed as cell growth inhibition incubated for 72 hrs during remission period by MTT assay; type: functional, cell-based
# [31] = Antileukemic activity against human CLL cell assessed as cell growth inhibition incubated for 72 hrs by MTT assay; type: functional, cell-based
# [32] = tested on: CCRF-CEM; assay: Induction of cell cycle arrest in human CCRF-CEM cells assessed as DNA synthesis at 20.7 uM incubated for 2.5 hrs by BrdU incorporation based flow cytometry analysis (reference value: 42.4 +/- 0.66%); type: functional
# [33] = tested on: CCRF-CEM; assay: Induction of cell cycle arrest in human CCRF-CEM cells assessed as accumulation of cells at sub-G1 phase at 20.7 uM incubated for 24 hrs by propidium iodide staining based flow cytometry analysis (reference value: 2.36 +/- 0.049%); type: functional
# [34] = tested on: HL-60; assay: Growth inhibition of human HL-60 cells incubated for 48 hrs by sulforhodamine B spectrophotometric assay; type: functional
# [35] = tested on: T47D; assay: Growth inhibition of human T47D cells incubated for 48 hrs by sulforhodamine B spectrophotometric assay; type: functional
# [36] = tested on: 786-0; assay: Growth inhibition against human 786-0 cells assessed as lethal concentration incubated for 48 hrs by sulforhodamine B spectrophotometric assay; type: functional; details: read-out: LC50 (the source's name)
# [37] = tested on: HCT-116; assay: Growth inhibition of human HCT-116 cells incubated for 48 hrs by sulforhodamine B spectrophotometric assay; type: functional
# [38] = tested on: EKVX; assay: Growth inhibition against human EKVX cells assessed as lethal concentration incubated for 48 hrs by sulforhodamine B spectrophotometric assay; type: functional; details: read-out: LC50 (the source's name)
# [39] = tested on: OVCAR-8; assay: Growth inhibition against human OVCAR-8 cells assessed as total growth inhibitory concentration incubated for 48 hrs by sulforhodamine B spectrophotometric assay; type: functional
# [40] = tested on: OVCAR-4; assay: Growth inhibition against human OVCAR-4 cells assessed as total growth inhibitory concentration incubated for 48 hrs by sulforhodamine B spectrophotometric assay; type: functional
# [41] = tested on: CCRF-CEM; assay: Induction of cell cycle arrest in human CCRF-CEM cells assessed as accumulation of cells at M phase at 4.14 uM incubated for 24 hrs by propidium iodide staining based flow cytometry analysis (reference value: 1.97 +/- 0.042%); type: functional
# [42] = tested on: CCRF-CEM; assay: Induction of cell cycle arrest in human CCRF-CEM cells assessed as accumulation of cells at sub-G1 phase at 4.14 uM incubated for 24 hrs by propidium iodide staining based flow cytometry analysis (reference value: 2.36 +/- 0.049%); type: functional
compound,measurement,setting,value
O=C1C2=C(C(=O)c3c(O)cccc31)C(c1ccco1)c1sc(=O)[nH]c1S2 (configuration not stated),GI50,[1],1.71 µM
same,CC50,[2],5.26 µM
same,TGI,[3],3.63 µM
same,GI50,[4],1.54 µM
same,IC50,[5],2.37 µM
same,GI50,[6],1.98 µM
same,Activity,[7],Active
same,Activity,[8],19.5%
same,growth at 10 µM,[9],-97.7%
same,GI50,[10],1.74 µM
same,IC50 at 72 h,[11],> 50 µM
same,survival at 528 h,[12],100%
same,GI50,[13],1.78 µM
same,CC50,[14],7.42 µM
same,GI50,[15],3.15 µM
same,Activity,[16],12.23%
same,GI50,[17],2.75 µM
same,GI50,[18],1.75 µM
same,TGI,[19],69.5 µM
same,Activity,[20],22.09%
same,CC50,[21],5.74 µM
same,TGI,[22],21.6 µM
same,TGI,[23],16.4 µM
same,Activity,[24],23.46%
same,Activity,[25],Non-Toxic
same,IC50,[26],0.75 µM
same,Activity,[27],11.7%
same,GI50,[28],3.48 µM
same,GI50,[29],2.18 µM
same,IC50,[30],28.2 µM
same,IC50,[31],> 50 µM
same,Activity,[32],0.9%
same,Activity,[33],5.8%
same,GI50,[34],1.82 µM
same,GI50,[35],2.87 µM
same,CC50,[36],71.2 µM
same,GI50,[37],2.37 µM
same,CC50,[38],44.3 µM
same,TGI,[39],8.97 µM
same,TGI,[40],3.95 µM
same,Activity,[41],1.25%
same,Activity,[42],5.02%
